Test results: PMC7971076 (Bioorganic & medicinal chemistry letters, 2015)

Experiments:
[1] = test system: cultured primary hippocampal neurons; assay: Neuroprotection against NMDA-induced excitotoxicity, LDH release; type: cell-based; conditions: 100 µM NMDA plus 30 µM glycine 1 h; LDH 20–24 h after; 30 µM 4, 10 µM (+)MK-801
[2] = test system: diheteromeric NMDA receptors (GluN1 with GluN2A–D); assay: Two electrode voltage clamp, statements across the diheteromeric NMDA receptors; type: cell-based, rat; conditions: for decrease in potency: relative to parent analogues (1/14)
[3] = molecular target: GluN1/GluN2C NMDA receptor (Rattus norvegicus, UniProt P35439+Q00961); type: cell-based; conditions: 3 µM compound, absence of Mg2+, n = 5
GluN1/GluN2C NMDA receptor, sequence (Q00961 20-1237, other chains not shown): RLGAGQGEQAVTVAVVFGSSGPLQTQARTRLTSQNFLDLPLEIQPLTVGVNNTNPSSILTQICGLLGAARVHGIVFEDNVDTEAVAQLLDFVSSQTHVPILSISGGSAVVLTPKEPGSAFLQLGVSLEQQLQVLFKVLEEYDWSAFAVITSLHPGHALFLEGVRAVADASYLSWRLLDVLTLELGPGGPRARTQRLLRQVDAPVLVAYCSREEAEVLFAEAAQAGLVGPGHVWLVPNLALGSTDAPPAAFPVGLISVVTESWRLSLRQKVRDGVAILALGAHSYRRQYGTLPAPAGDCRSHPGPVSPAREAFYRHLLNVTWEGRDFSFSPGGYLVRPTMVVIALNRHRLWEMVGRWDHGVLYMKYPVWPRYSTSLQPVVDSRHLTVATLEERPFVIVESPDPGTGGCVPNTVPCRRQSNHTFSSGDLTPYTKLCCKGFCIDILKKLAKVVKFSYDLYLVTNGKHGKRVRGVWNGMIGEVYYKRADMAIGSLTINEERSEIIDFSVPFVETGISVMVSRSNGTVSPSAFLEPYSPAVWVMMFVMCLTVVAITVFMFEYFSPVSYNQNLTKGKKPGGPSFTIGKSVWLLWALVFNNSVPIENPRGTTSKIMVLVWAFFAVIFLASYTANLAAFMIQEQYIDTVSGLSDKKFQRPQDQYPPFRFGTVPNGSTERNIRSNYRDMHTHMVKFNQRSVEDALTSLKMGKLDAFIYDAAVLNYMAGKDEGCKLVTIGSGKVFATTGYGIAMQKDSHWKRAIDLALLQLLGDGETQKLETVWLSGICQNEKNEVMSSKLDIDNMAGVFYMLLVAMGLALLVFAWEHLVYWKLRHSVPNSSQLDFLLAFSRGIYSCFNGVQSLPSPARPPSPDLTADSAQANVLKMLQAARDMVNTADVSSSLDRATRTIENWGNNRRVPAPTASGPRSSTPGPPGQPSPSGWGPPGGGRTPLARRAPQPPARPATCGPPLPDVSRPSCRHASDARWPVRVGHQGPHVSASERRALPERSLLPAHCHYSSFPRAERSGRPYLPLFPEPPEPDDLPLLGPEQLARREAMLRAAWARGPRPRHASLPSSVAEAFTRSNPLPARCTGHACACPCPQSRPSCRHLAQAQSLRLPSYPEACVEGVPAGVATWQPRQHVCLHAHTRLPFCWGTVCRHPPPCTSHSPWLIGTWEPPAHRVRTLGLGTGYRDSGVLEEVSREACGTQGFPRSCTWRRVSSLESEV

[4] = molecular target: GluN1/GluN2D NMDA receptor (Rattus norvegicus, UniProt P35439+Q62645); type: cell-based; conditions: compared to screening hit 1
GluN1/GluN2D NMDA receptor, sequence (Q62645 28-1323, other chains not shown): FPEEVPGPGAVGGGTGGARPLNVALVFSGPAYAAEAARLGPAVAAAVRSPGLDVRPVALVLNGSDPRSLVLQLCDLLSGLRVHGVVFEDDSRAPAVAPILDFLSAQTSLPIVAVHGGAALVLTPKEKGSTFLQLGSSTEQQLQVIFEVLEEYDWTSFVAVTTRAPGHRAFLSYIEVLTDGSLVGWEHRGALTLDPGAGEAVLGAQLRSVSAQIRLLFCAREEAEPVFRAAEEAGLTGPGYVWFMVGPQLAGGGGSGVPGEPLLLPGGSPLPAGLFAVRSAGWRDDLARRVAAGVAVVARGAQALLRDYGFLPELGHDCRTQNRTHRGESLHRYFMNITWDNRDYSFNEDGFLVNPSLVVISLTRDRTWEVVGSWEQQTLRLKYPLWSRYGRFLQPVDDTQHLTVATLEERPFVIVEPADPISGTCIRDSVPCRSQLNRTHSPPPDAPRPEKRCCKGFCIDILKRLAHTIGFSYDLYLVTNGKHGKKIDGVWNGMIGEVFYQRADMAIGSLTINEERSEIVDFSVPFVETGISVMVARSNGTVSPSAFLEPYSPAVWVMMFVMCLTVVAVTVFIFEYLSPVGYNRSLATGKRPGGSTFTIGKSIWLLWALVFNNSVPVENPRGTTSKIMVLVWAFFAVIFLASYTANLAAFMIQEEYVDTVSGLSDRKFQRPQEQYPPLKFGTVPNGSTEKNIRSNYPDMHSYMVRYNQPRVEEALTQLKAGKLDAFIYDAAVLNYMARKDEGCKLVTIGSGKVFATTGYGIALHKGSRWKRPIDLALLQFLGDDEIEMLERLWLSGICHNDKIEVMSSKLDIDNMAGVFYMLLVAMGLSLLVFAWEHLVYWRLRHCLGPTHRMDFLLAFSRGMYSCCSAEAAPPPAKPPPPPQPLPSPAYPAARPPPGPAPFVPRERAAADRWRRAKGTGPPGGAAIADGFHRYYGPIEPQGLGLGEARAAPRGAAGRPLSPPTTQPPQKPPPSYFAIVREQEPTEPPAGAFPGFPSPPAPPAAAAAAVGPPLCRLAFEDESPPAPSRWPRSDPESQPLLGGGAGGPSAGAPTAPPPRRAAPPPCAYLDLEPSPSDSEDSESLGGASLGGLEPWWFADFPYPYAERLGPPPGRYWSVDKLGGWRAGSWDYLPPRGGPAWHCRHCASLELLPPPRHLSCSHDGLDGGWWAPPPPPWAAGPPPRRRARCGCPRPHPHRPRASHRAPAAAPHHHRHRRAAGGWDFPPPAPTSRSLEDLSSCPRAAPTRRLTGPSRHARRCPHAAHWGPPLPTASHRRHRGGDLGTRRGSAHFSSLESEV

[5] = Stability of enantiomers separated by chiral semi-preparative HPLC; type: physicochemical; conditions: after chiral semi-preparative HPLC

## C[C@]12N[C@H](Cc3ccccc31)c1ccccc12 [(+)MK-801, reference compound]
[1]
  NMDA/glycine-induced cell death (supernatant LDH): able to attenuate

## CCOC(=O)c1c(NC(=O)CC2SC(N)=NC2=O)sc2c1CCC(C)C2 (centres unmarked) [Compound 4]
[1]
  NMDA/glycine-induced cell death (supernatant LDH): reduced significantly
[2]
  improved activity compared to unsubstituted counterpart 5: ~ 2 fold
[2]; 5 µM compound
  mechanism: inhibition with 10-fold increase in glutamate (1000 µM) or glycine (300 µM): could not be surmounted
[2]; separate experiments, n = 4–6
  inhibition at saturating concentrations against all GluN2 subunits: 73–81%
[3]
  degree of inhibition at membrane potentials between ‒60 and +60 mV: the same at all voltages tested

## CCOC(=O)c1c(NC(=O)CC2SC(=N)NC2=O)sc2c1CCCC2 (centres unmarked) [Compound 5]
[4]
  increase in potency at GluN2D-containing receptors: 3 fold

## CCOC(=O)c1c(NC(=O)CC2SC(=N)NC2=O)sc2c1CCC(F)(F)C2 (centres unmarked) [Compound 11]
[5]
  racemization of separated enantiomers: prone to rapid racemization

## N=C1NC(=O)C(CC(=O)Nc2sc3c(c2C(=O)O)CCCC3)S1 (centres unmarked) [Compound 13]
[2]
  activity at NMDA receptor subtypes: loss of activity

## CCOC(=O)c1cc(C)sc1NC(=O)CC1SC(=N)NC1=O (centres unmarked) [Compound 15]
[2]
  decrease in potency: > 4 fold

## COC(=O)c1ccsc1NC(=O)CC1SC(=N)NC1=O (centres unmarked) [Compound 19]
[2]
  decrease in potency: over 10 fold

## COC(=O)c1c(NC(=O)CC2SC(N)=NC2=O)sc2c1CCCC2 (centres unmarked) [Compound 20]
[4]
  increase in potency at GluN2D-containing receptors: 2 fold

## N#Cc1c(NC(=O)CC2SC(=N)NC2=O)sc2c1CCCC2 (centres unmarked) [Compound 21]
[2]
  maximal inhibition: 60%

## COC(=O)c1c(NC(=O)CC2SC(N)=NC2=O)sc2c1CCC(C)C2 (centres unmarked) [Compound 22]
[2]
  IC50 values for all NMDA receptor subunits: submicromolar

## CCOC(=O)c1c(NC(=O)CC2SC(=O)NC2=O)sc2c1CCC2 (centres unmarked) [Compound 24]
[2]
  activity at NMDA receptor subtypes: abolished activity

## CCOC(=O)c1c(NC(=O)CC2SC(=O)NC2=O)sc2c1CCCC2 (centres unmarked) [Compound 25]
[2]
  activity at NMDA receptor subtypes: abolished activity

## CCOC(=O)c1c(NC(=O)CC2NC(=O)NC2=O)sc2c1CCCC2 (centres unmarked) [Compound 27]
[2]
  activity at NMDA receptor subtypes: abrogated activity
